Reference: ChEMBL document CHEMBL1133879, “Nicotinamide N-oxides as CXCR2 antagonists” (Bioorg Med Chem Lett, 2001)
pIC50: −log10 of the molar value.

How the values were obtained:
[1] = molecular target: T1, C-X-C chemokine receptor type 2 (Homo sapiens, UniProt P25025); assay: Evaluated using an SPA assay with recombinant human [125I]IL-8 and membranes prepared from Sf9 cells expressing human CXCR2
T1 sequence (P25025 whole entry): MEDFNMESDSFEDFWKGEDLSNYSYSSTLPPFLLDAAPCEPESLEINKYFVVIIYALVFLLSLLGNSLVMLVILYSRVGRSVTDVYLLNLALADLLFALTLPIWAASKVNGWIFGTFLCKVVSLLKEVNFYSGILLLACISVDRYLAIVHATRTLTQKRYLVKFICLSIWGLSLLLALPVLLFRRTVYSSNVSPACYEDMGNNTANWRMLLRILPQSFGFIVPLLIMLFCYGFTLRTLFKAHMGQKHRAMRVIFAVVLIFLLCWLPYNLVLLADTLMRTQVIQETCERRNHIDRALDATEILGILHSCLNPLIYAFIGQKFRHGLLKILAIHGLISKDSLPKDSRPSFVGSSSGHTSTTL

Homo sapiens [2] = species on record: Homo sapiens; assay: Ability to block GRO-alpha driven human neutrophil chemotaxis; format: functional, organism-based
Homo sapiens [3] = species on record: Homo sapiens; assay: Functional selectivity was assessed in a neutrophil chemotaxis assay using N-formyl-methionyl-leucyl-phenylalanine (FMLP); format: organism-based
[4] = molecular target: T2, C-X-C chemokine receptor type 2 (Homo sapiens) (UniProt P25025); assay: Displacement of [125I]IL-8 from CHO cell membrane expressing human CXCR2 receptor at a concentration of 20 uM; format: cell membranes
T2 sequence (whole entry): T1 sequence (P25025 whole entry)

[5] = molecular target: T3, C-X-C chemokine receptor type 1 (Homo sapiens) (UniProt P25024); assay: Displacement of [125I]IL-8 from CHO cell membrane expressing human CXCR1 receptor at a concentration of 20 uM; format: cell membranes
T3 sequence (whole entry): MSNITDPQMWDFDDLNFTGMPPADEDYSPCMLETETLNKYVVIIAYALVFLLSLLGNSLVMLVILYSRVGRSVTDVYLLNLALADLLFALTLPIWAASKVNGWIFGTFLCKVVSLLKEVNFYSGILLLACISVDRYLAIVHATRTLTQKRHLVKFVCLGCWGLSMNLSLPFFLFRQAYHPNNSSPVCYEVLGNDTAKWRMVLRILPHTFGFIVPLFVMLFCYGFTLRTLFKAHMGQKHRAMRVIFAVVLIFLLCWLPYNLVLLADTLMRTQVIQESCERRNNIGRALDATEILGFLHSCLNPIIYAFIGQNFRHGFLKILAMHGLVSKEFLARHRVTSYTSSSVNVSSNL

[6] = molecular target: T4, Endothelin receptor type B (Homo sapiens) (UniProt P24530); assay: Displacement of [125I]endothelin from CHO cell membrane expressing human Endothelin B receptor; format: cell membranes; set-up: concentration or dose not given beside the values; conditions: concentration not given here
T4 sequence (whole entry): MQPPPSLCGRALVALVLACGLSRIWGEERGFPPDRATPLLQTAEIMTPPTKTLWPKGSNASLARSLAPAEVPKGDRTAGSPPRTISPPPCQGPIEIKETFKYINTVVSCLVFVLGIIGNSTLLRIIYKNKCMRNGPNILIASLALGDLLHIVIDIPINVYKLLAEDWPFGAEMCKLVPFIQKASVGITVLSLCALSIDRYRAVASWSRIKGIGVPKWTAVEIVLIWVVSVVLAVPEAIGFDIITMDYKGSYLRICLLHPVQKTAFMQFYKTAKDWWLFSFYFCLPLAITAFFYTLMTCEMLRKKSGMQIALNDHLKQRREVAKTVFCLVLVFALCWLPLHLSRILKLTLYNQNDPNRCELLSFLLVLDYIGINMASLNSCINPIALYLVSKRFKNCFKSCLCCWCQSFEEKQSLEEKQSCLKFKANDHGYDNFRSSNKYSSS

[7] = molecular target: T5, Gastrin/cholecystokinin type B receptor (Homo sapiens) (UniProt P32239); assay: Displacement of [3H]CCK-8 from NIH3T3 (mouse embryo cell membrane ) expressing human cholecystokinin CCKB receptor; format: cell membranes; set-up: concentration or dose not given beside the values; conditions: concentration not given here
T5 sequence (whole entry): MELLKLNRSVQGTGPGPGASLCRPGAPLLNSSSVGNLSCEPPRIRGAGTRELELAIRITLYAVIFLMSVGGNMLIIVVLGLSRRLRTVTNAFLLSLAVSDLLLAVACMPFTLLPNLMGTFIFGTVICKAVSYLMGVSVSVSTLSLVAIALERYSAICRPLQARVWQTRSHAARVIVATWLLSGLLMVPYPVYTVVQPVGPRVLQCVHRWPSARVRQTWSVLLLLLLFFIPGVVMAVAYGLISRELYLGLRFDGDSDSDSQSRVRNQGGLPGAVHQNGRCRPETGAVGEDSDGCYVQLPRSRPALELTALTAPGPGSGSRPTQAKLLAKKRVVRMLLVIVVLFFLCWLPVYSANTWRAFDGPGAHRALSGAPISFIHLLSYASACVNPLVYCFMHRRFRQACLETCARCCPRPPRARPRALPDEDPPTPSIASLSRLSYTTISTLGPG

[8] = molecular target: T6, Neuropeptide Y receptor type 1 (Homo sapiens) (UniProt P25929); assay: Displacement of [125I]-peptide YY (PYY) from SK-N-MC (human neuroblastoma) cell membrane expressing human Neuropeptide Y receptor type 1; set-up: concentration or dose not given beside the values; conditions: concentration not given here
T6 sequence (whole entry): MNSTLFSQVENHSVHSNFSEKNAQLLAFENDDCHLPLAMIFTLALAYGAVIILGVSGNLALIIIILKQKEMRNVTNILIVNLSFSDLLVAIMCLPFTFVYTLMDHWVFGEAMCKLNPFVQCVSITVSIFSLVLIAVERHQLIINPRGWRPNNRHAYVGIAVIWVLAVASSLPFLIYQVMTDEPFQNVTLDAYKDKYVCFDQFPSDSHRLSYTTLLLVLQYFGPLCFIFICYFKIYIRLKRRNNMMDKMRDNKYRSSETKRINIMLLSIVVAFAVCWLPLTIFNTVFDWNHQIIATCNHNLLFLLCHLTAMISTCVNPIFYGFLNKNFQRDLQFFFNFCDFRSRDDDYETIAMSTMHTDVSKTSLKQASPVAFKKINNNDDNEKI

[9] = molecular target: Somatostatin receptor (Mus musculus) (UniProt P30935+O08858+P30875+P30873+P49660); assay: Displacement of [125I]-TYR somatostatin from At-T-20 (mouse pituitary) cell membrane expressing somatostatin receptor; format: cell membranes; conditions: Pituitary gland cell; concentration not given here
[10] = molecular target: T7, Calcitonin receptor (Homo sapiens) (UniProt P30988); assay: Displacement of [125I]calcitonin from T-47D (human breast cancer) cell membrane expressing human calcitonin receptor; format: cell membranes; conditions: T47D; concentration not given here
T7 sequence (whole entry): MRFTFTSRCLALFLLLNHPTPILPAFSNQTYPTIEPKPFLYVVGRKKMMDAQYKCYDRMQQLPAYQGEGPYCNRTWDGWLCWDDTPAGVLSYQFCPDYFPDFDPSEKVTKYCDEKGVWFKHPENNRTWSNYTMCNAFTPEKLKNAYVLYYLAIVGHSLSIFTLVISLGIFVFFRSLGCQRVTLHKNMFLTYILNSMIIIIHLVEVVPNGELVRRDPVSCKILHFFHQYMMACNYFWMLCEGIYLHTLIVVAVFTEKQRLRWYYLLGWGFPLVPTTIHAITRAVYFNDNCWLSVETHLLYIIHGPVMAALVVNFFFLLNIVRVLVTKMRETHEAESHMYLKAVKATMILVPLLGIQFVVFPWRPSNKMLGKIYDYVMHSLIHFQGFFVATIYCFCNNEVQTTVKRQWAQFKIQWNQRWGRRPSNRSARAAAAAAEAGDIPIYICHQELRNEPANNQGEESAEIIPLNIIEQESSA

[11] = molecular target: T1, C-X-C chemokine receptor type 2; assay: Compound binding was evaluated using an SPA assay with recombinant human [125I]IL-8 and membranes prepared from Sf9 cells expressing human C-X-C chemokine receptor type 2; format: cell membranes

Chain of Somatostatin receptor (Mus musculus) (P30935 whole entry): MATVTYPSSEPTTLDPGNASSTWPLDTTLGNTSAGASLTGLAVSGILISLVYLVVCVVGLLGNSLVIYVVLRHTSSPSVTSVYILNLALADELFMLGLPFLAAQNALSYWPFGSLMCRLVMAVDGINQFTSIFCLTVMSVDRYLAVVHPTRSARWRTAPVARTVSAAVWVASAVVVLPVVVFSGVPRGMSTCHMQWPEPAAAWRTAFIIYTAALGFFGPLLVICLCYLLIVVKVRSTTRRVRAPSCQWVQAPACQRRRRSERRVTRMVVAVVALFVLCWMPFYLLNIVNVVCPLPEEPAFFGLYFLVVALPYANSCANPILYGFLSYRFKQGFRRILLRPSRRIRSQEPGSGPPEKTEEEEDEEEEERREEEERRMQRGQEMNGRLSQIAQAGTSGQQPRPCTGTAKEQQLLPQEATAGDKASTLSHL
Chain of Somatostatin receptor (Mus musculus) (O08858 whole entry): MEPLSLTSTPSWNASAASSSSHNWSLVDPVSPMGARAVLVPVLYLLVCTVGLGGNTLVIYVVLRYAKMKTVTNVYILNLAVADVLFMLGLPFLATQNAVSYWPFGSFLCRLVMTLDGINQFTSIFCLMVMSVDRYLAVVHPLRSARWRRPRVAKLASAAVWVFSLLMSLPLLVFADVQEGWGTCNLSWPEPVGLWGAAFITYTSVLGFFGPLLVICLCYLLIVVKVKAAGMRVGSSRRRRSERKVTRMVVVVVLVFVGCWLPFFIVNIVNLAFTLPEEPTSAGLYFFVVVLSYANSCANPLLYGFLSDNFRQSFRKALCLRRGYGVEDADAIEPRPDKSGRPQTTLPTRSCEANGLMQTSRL
Chain of Somatostatin receptor (Mus musculus) (P30875 whole entry): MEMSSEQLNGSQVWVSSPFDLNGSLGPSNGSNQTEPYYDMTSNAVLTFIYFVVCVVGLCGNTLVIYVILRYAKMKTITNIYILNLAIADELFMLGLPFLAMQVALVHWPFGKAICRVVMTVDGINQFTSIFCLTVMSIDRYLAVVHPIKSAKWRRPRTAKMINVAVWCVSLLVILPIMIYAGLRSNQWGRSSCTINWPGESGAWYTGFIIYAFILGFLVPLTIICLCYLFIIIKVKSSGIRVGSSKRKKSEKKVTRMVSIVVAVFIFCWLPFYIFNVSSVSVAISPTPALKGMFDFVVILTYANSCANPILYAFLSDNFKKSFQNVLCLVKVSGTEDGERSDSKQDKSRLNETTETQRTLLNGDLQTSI
Chain of Somatostatin receptor (Mus musculus) (P30873 whole entry): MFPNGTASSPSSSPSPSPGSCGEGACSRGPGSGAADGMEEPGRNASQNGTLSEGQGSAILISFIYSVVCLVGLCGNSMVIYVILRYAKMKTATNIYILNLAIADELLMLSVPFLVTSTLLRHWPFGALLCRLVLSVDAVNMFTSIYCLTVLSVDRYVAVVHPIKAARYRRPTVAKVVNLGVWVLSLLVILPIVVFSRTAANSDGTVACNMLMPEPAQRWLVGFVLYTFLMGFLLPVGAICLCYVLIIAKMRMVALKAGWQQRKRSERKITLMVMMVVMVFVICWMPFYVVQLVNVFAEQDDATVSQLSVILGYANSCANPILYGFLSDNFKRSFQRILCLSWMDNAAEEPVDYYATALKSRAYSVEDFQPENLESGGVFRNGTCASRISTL
Chain of Somatostatin receptor (Mus musculus) (P49660 with tags, fused parts or gaps): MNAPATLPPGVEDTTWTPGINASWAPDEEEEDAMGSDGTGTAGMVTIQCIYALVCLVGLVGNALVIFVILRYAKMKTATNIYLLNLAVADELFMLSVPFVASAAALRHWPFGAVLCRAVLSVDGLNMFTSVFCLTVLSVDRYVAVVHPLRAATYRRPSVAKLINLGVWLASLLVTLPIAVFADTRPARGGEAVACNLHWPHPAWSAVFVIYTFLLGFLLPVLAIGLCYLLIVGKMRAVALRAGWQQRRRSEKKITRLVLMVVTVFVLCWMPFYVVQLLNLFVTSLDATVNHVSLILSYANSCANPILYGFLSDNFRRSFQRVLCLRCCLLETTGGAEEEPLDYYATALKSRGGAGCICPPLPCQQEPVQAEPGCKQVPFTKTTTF

| pIC50 [1] | pIC50 (Homo sapiens [2]) | pIC50 (Homo sapiens [3]) | inhibition [4] | inhibition [5] | inhibition [6] | inhibition [7] | inhibition [8] | inhibition [9] | inhibition [10] | pIC50 [11] | Structure (SMILES) |
| --- | --- | --- | --- | --- | --- | --- | --- | --- | --- | --- | --- |
| < 4.70 | 6.30 |  |  |  |  |  |  |  |  |  | O=C(Nc1ccc(I)cc1)c1ccc(Cl)[n+]([O-])c1 |
| < 4.70 | < 4.70 |  |  |  |  |  |  |  |  |  | O=C(NCc1ccc(F)cc1)c1ccc(Cl)[n+]([O-])c1 |
| 6.55 | 6.00 | 4.89 | 77% | 9% | 8% | 29% | 32% | 38% |  |  | O=C(Nc1ccc(F)cc1)c1ccc(S(=O)(=O)Cc2ccccc2)[n+]([O-])c1 |
| < 4.70 | 5.89 |  |  |  |  |  |  |  |  |  | CC(C)(C)c1ccc(NC(=O)c2ccc(Cl)[n+]([O-])c2)cc1 |
| < 4.70 | < 4.70 |  |  |  |  |  |  |  |  |  | COc1ccc(NC(=O)c2ccc(Cl)[n+]([O-])c2)cc1 |
|  | 8.00 |  |  |  |  |  |  |  |  |  | N#Cc1ccc(NC(=O)Nc2ccccc2Br)c2nn[nH]c12 |
| < 4.70 | < 4.70 |  |  |  |  |  |  |  |  |  | O=C(NC1CCCCC1)c1ccc(Cl)[n+]([O-])c1 |
| 6.89 | 5.48 | 4.88 | 97% | 8% | 15% | 14% | 41% |  | 3% |  | CCS(=O)(=O)c1ccc(C(=O)Nc2ccc(F)cc2)c[n+]1[O-] |
| 6.40 | 5.70 |  |  |  |  |  |  |  |  |  | CC(C)S(=O)(=O)c1ccc(C(=O)Nc2ccc(F)cc2)c[n+]1[O-] |
| 7.49 | < 4.70 |  |  |  |  |  |  |  |  |  | O=C(O)c1cccc(S(=O)(=O)c2ccc(C(=O)Nc3ccc(F)cc3)c[n+]2[O-])c1 |
|  | 6.77 |  |  |  |  |  |  |  |  | 6.96 | CCN(CC)CCCCNc1nc2cc(Cl)c(Cl)cc2nc1-c1ccc(-c2cccs2)s1 |
| 6.34 | 5.72 |  | 60% | 8% | -2% | 1% | -1% |  | 4% |  | O=C(Nc1ccc(F)cc1)c1ccc(S(=O)(=O)C2CCCC2)[n+]([O-])c1 |
| 6.89 | 5.70 | 5.02 | 97% | 73% | 8% | 40% | 58% | 60% |  |  | CS(=O)(=O)c1ccc(C(=O)Nc2ccc(F)cc2)c[n+]1[O-] |
| 6.00 | 5.96 | < 4.40 | 85% | 68% | 14% | 11% | 15% | -2% | -1% |  | O=C(Nc1ccc(F)cc1)c1ccc(Cl)[n+]([O-])c1 |
| < 4.70 | 6.08 |  |  |  |  |  |  |  |  |  | O=C(NC(c1ccccc1)c1ccccc1)c1ccc(Cl)[n+]([O-])c1 |
| 7.05 | < 4.70 |  |  |  |  |  |  |  |  |  | O=C(Nc1ccc(F)cc1)c1ccc(S(=O)(=O)c2ccccc2)[n+]([O-])c1 |
| < 4.70 | 5.38 |  |  |  |  |  |  |  |  |  | O=C(Nc1ccccc1O)c1ccc(Cl)[n+]([O-])c1 |
